Reference: ChEMBL document CHEMBL5126607, “Discovery and In Vivo Evaluation of ACT-660602: A Potent and Selective Antagonist of the Chemokine Receptor CXCR3 for Autoimmune Diseases” (J Med Chem, 2022)
≈ marks a conversion by molar mass, not a printed value.

Key:
[1] = target: T1, Voltage-gated inwardly rectifying potassium channel KCNH2 (Homo sapiens, UniProt Q12809); assay: Inhibition of hERG expressed in CHO cells by Q patch-clamp method
[2] = Fractional unbound plasma concentration in Balb/c mouse at 10 mg/kg, po
[3] = Fractional unbound plasma concentration in Wistar rat at 0.5 mg/kg, iv and 2 mg/kg, po; details: in vivo
[4] = Half life in Wistar rat at 0.5 mg/kg, iv and 2 mg/kg, po; details: in vivo
[5] = Lipophilicity, log D of the compound at pH 7.4; details: buffer
[6] = Metabolic stability in rat hepatocyte assessed as intrinsic clearance measured per 10^6 cells in presence of NADPH regenerating system by LC-MS/MS analysis; details: hepatocytes
[7] = Metabolic stability in Beagle dog hepatocyte assessed as intrinsic clearance measured per 10^6 cells in presence of NADPH regenerating system by LC-MS/MS analysis; details: hepatocytes
[8] = Fractional unbound plasma concentration in Beagle dog at 0.5 mg/kg, iv and 2 mg/kg, po
[9] = Half life in Beagle dog at 0.5 mg/kg, iv and 2 mg/kg, po; details: in vivo
[10] = target: T1, Voltage-gated inwardly rectifying potassium channel KCNH2; assay: Inhibition of hERG by manual patch clamp method
hERG [11] = target: T2, hERG (Homo sapiens, UniProt Q12809); assay: Inhibition of hERG expressed in CHO cells 3 uM at by Q patch-clamp method relative to control; format: toxicity, cell-based; details: CHO cells that express hERG
T2 sequence (Q12809 whole entry): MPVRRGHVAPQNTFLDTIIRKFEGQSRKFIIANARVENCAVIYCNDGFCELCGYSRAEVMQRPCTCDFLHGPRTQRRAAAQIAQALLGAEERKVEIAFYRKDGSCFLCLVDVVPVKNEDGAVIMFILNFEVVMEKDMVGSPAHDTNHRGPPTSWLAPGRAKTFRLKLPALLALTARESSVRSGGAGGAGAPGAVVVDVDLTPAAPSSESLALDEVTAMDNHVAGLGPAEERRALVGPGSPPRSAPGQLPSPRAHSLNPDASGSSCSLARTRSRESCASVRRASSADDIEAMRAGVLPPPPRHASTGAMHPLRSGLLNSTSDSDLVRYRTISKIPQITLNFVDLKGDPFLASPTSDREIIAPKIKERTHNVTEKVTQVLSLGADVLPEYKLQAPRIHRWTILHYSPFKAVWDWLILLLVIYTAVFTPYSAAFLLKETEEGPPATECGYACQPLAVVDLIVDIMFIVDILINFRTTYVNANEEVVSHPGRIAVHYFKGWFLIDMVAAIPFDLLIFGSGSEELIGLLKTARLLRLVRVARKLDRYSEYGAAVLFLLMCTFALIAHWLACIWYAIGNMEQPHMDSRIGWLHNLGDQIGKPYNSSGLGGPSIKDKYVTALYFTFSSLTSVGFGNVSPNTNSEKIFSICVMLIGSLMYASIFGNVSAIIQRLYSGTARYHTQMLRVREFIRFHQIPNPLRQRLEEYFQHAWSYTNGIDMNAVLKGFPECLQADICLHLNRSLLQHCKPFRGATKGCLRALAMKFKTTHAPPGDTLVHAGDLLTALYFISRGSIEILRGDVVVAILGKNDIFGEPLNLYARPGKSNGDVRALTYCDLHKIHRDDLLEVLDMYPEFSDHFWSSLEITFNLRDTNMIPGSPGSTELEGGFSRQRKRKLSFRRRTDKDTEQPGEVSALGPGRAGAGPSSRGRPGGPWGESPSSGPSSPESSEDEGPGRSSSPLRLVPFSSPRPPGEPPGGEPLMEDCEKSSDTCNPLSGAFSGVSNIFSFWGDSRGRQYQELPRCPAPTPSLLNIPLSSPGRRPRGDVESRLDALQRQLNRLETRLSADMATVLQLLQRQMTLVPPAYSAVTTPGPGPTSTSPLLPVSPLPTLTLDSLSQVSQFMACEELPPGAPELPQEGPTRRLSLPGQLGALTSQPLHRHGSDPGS

[12] = target: T3, C-X-C chemokine receptor type 3 (Homo sapiens, UniProt P49682)
T3 sequence (P49682 whole entry): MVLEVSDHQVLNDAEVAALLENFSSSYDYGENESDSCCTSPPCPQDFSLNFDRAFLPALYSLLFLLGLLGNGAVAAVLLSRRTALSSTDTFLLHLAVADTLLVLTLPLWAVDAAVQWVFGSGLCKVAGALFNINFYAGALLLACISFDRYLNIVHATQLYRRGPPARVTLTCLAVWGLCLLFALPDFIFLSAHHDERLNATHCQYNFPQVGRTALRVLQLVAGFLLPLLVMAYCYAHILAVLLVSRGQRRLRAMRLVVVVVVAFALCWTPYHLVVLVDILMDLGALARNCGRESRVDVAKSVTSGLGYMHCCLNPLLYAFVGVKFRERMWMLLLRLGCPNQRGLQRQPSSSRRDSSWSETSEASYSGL
Description: Antagonist activity at recombinant human CXCR3 expressed in human CHO-K1 cells co-expressing Galpha15 incubated for 10 mins by Fluo-4AM dye based FLIPR assay

[13] = target: T3, C-X-C chemokine receptor type 3; remark: listed apart in the source
Description: Inhibition of CXCR3 receptor internalization in human venous whole blood incubated for 30 mins by flow cytometer analysis

[14] = target: T3, C-X-C chemokine receptor type 3; remark: listed apart in the source
Description: Antagonist activity at recombinant human CXCR3 in human U2SO cells assessed as reduction in CXCL10-induced beta-arrestin recruitment by TANGO assay

in vivo [15] = details: Balb/c, mouse, po, 10 mg/kg
in vivo [16] = details: Wistar, rat, po, 2 mg/kg
in vivo [17] = details: Balb/c, mouse, po, 10 mg/kg; remark: listed apart in the source
in vivo [18] = details: Wistar, rat, po, 2 mg/kg; remark: listed apart in the source
in vivo [19] = details: Balb/c, mouse, po, 10 mg/kg; remark: listed apart in the source
in vivo [20] = details: Wistar, rat, po, 2 mg/kg; remark: listed apart in the source
in vivo [21] = details: Wistar, rat, po, 2 mg/kg; remark: listed apart in the source
in vivo [22] = details: beagle, dog, po, 2 mg/kg
in vivo [23] = details: beagle, dog, po, 2 mg/kg; remark: listed apart in the source
in vivo [24] = details: beagle, dog, po, 2 mg/kg; remark: listed apart in the source
in vivo [25] = details: beagle, dog, po, 2 mg/kg; remark: listed apart in the source
in vitro = details: human, microsomes
hERG [26] = target: T2, hERG; assay: Inhibition of hERG expressed in CHO cells 10 uM at by Q patch-clamp method relative to control
[27] = human, microsomes, 1 µM
[28] = Fractional unbound plasma concentration in mouse at 1 mg/kg, iv and 10 mg/kg, po
[29] = Half life in BALB/c mouse at 1 mg/kg, iv and 10 mg/kg, po; details: in vivo
in vivo [30] = details: Balb/c, mouse, po, 10 mg/kg; remark: listed apart in the source
[31] = Fractional unbound plasma concentration in rat at 0.2 mg/kg, iv and 2 mg/kg, po
[32] = Half life in Wistar rat at 0.2 mg/kg, iv and 2 mg/kg, po; details: in vivo
[33] = Solubility of the compound in pH 7 buffer
[34] = Solubility of the compound in FeSSIF
[35] = Solubility of the compound in FaSSIF

T1 sequence (Q12809 whole entry): as the sequence (Q12809 whole entry) above

| SMILES | half-life [4] [min] | hepatocyte CLint [6] [µL/min/1e6 cells] | hepatocyte CLint [7] [µL/min/1e6 cells] | IC50 [12] [nM] | IC50 [13] [nM] | IC50 [14] [nM] | AUC (in vivo [15]) [ng·h/mL] | AUC (in vivo [16]) [ng·h/mL] | Cmax (in vivo [17]) [ng/mL] | Cmax (in vivo [18]) [ng/mL] | Tmax (in vivo [19]) [min] | Tmax (in vivo [20]) [min] | bioavailability (in vivo [21]) [%] | microsomal CLint at 1 µM (in vitro) [µL/min/mg] | IC50 [1] [nM] | further results |
| --- | --- | --- | --- | --- | --- | --- | --- | --- | --- | --- | --- | --- | --- | --- | --- | --- |
| CCOc1ncc(-c2nc(C(F)(F)F)sc2N2CCN(C(=O)Cn3nc(C)nc3C)[C@H](C)C2)cn1 | 372 | < 2 | 5.1 | 7 | 364 | 173 | 63600 | 2850 | 11600 | 574 | 30 | 30 | 52 | < 10 | > 20000 | fraction unbound [2]: 0.023; fraction unbound [3]: 0.101; logD [5]: 2.8; fraction unbound [8]: 0.328; half-life [9]: 60 min; IC50 [10]: 44000 nM; inhibition at 3 µM (hERG [11]): 4%; AUC (in vivo [22]): 861 ng·h/mL; Cmax (in vivo [23]): 415 ng/mL; Tmax (in vivo [24]): 30 min; bioavailability (in vivo [25]): 52% |
| CCOc1ncc(-c2nc(C(F)(F)F)sc2N2CCN(C(=O)Cn3cnc4cccnc43)[C@H](C)C2)cn1 |  |  |  | 2 | 48 | 20 | 1590 |  | 1800 |  | 30 |  |  |  | 13000 | fraction unbound [2]: 0.008; inhibition at 10 µM (hERG [26]): 44%; CLH [27]: 4.5 mL/h/kg |
| C[C@@H]1CN(c2scnc2-c2nc3ccccc3[nH]2)CCN1C(=O)Cn1cnc2cccnc21 |  |  |  | 5.9 | 554 | 830 | 60.7 |  | 95.2 |  | 60 |  |  | 12 | 2200 | fraction unbound [28]: 0.122; half-life [29]: 6 min; bioavailability (in vivo [30]): 4% |
| Cc1nc(C)n(CC(=O)N2CCN(c3sc(C(F)(F)F)nc3-c3cnc(OC(C)C)nc3)C[C@H]2C)n1 | 108 | 2.5 | 6.8 | 3.4 | 216 | 138 |  | 3980 |  | 806 |  | 30 | 89 | 16 | > 20000 | fraction unbound [3]: 0.035; fraction unbound [8]: 0.192 |
| CCOc1ncc(-c2nc(C(F)(F)F)sc2N2CCN(C(=O)Cn3cnc(C(F)(F)F)n3)[C@H](C)C2)cn1 |  |  |  |  |  |  |  |  |  |  |  |  |  |  | > 6000 | inhibition at 3 µM (hERG [11]): 31% |

Second part, led by results:

| half-life [4] [min] | hepatocyte CLint [6] [µL/min/1e6 cells] | hepatocyte CLint [7] [µL/min/1e6 cells] | IC50 [12] [nM] | IC50 [13] [nM] | IC50 [14] [nM] | AUC (in vivo [15]) [ng·h/mL] | AUC (in vivo [16]) [ng·h/mL] | Cmax (in vivo [17]) [ng/mL] | Cmax (in vivo [18]) [ng/mL] | Tmax (in vivo [19]) [min] | Tmax (in vivo [20]) [min] | bioavailability (in vivo [21]) [%] | microsomal CLint at 1 µM (in vitro) [µL/min/mg] | SMILES | IC50 [1] [nM] | further results |
| --- | --- | --- | --- | --- | --- | --- | --- | --- | --- | --- | --- | --- | --- | --- | --- | --- |
|  |  |  | 1.6 | 70 | 31 |  | 191 |  | 91.3 |  | 36 | 7 | 89 | C[C@@H]1CN(c2sc(C(F)(F)F)nc2-c2nc3ccccc3[nH]2)CCN1C(=O)Cn1cnc2cccnc21 | 1750 | fraction unbound [28]: 0.01; fraction unbound [31]: 0.017; half-life [32]: 48 min |
| 426 | < 2 | < 2 |  |  |  |  | 14000 |  | 1520 |  | 30 | 80 | < 10 | Cc1nc(C)n(CC(=O)N2CCN(c3sc(C(F)(F)F)nc3-c3cnc(C(F)(F)F)nc3)C[C@H]2C)n1 |  | logD [5]: 2.9; half-life [9]: 870 min; solubility [33]: 387 µg/mL (≈ 724 µM); solubility [34]: 530 µg/mL (≈ 992 µM); solubility [35]: 450 µg/mL (≈ 842 µM); AUC (in vivo [22]): 20000 ng·h/mL; Cmax (in vivo [23]): 1380 ng/mL; Tmax (in vivo [24]): 60 min; bioavailability (in vivo [25]): 80% |
